# Article PMC10604444, “Extra-Synaptic GABAA Receptor Potentiation and Neurosteroid-Induced Learning Deficits Are Inhibited by GR3027, a GABAA Modulating Steroid Antagonist” (Biomolecules, 2023)
# Assays:
# [1] = system: dissociated hypothalamic cells (medial preoptic area); test: Perforated patch recording of spontaneous miniature inhibitory postsynaptic currents (mIPSCs); format: cell-based, rat; details: 30 and 100 nM AP, holding potential −11 mV, n = 5, p < 0.05
# Description: For the patch clamp studies, male Sprague-Dawley rats (n = 5, weight < 130 g) were housed at two or four rats per cage at 22 °C and with artificial daylight. Rats had free access to water and standard food. The regional ethics committee for animal research approved the experimental protocols. All procedures including animals were conducted in accordance with the ethical guidelines set by the European Union Directive 2010/63/EU for animal experiments.
# Electrophysiological experiments: The methods used for electrophysiological recording and cell preparation have been described in detail elsewhere. A summary of the procedures is given below. […]
# Protocol and analysis: A standard protocol was used for the experiments. Firstly, the current was recorded in the control solution (EC solution) for 30–60 s, followed by a 60–300 s test period with or without AP. The spontaneous miniature inhibitory postsynaptic currents (mIPSCs) were detected by visual inspection of current changes. […] The time-course and amplitude of the currents were measured semi-manually by using cursors and were fitted to an exponential decay curve by the curve-fitting routine of the pCLAMP software (Axon Instruments, Foster City, CA, USA). […] All the mIPSC values from the treatment period of the recorded cell (n = 6–11 events) were pooled and the mean was subjected to statistical analysis. […]
# [2] = i.v. AP; cited from earlier work
# [3] = biological target: T1, human α5β3γ2L GABAA receptors expressed in HEK-293 cells (Homo sapiens, UniProt P28472+P31644); test: Whole-cell patch clamp of GABA/THDOC-evoked currents, extra-synaptic protocol (Dynaflow); format: cell-based
# T1 construct: The coding regions of the human GABAA receptor subunits were then amplified by PCR; expressed in transfected cells; host or cells: HEK-293 (permanently transfected, pcDNA3.1 vectors, CMV promoter)
# Source text: Wild-type HEK-293 cells (passage 4, originating from Pasteur Institute, Paris, France) were permanently transfected with vectors including the human CMV promoter for the constitutive expression of the human α5, β3, and γ2L GABAA receptor subunits (α5β3γ2L) or the human α1, β2, and γ2L GABAA receptor subunits (α1β2γ2L). The production of the plasmids used in the sub-cloning of the different subunits is published in Rahman et al..
# The electrophysiological recordings from HEK-293 cells were performed with the whole-cell voltage clamp technique, at room temperature (21–23 °C). After compensation for liquid junction potential, a steady holding potential of −17 mV was used in all experiments. Patch pipettes were pulled from borosilicate glass (Bergman Labora AB, Danderyd, Sweden) and polished to a resistance of 2–5 MΩ when filled with intracellular solution and immersed in a bath (extracellular) solution (for solutions, see below). The pipette tips were filled by immersion in standard intracellular solution and subsequent back-filling with intracellular solution. The recordings were made using an Axopatch 200B amplifier and a Digidata 1322A (Axon Instruments, Foster City, CA, USA) controlled via a Pentium processor-based personal computer. Data were acquired using the pCLAMP software sampled at 10 kHz, filtered at 2–10 kHz, and analyzed with Clampfit (versions 9.0, both from Axon Instruments, Foster City, CA, USA). A series resistance between the pipette and cell membrane not higher than 20 MΩ was accepted. No series resistance compensation was used. The stability of series resistance was monitored repeatedly from the time course of capacitative transients during the experiments. The measured liquid junction potential between extracellular and intracellular solutions was subtracted from all data presented, as previously described. All experiments were performed at room temperature (21–23 °C).
# In all electrophysiological experiments, tetrahydro-deoxycorticosterone (THDOC) was used as a positive GABAA receptor steroid modulator (PAM) to mimic the effect of AP on central GABAA channels. […] THDOC (Sigma Chemical Co., St. Louis, MO, USA) and GR3027 (3α-ethynyl, 3β-hydroxyl, 5α-androstan-17-oxime, golexanolone, Umecrine Cognition AB, Stockholm, Sweden) were dissolved in dimethyl sulfoxide (DMSO) using ultrasound, for the preparation of solutions containing a final DMSO concentration of 0.1%. GR3027 was discovered within a series of molecules developed and patented by T. Bäckström and G. Ragagnin, (patent WO 2008/063128). All solutions were complemented with DMSO to achieve the same final concentration as in the steroid-containing test solution. GABA (Sigma Chemical Co., St. Louis, MO, USA) was first prepared as a stock solution (dissolved in EC with ultrasonic treatment) to the desired concentrations, with the corresponding final concentrations of test solutions (30 µM and 0.3 µM; see protocols below). GABA was added to the experimental solution without a change in osmolarity.
# The experimental protocols were designed to mimic the physiological conditions of the tonic (extra-synaptic) and phasic (synaptic) activation of GABAA receptors observed in central neurons, depending on the subunit compositions, respectively. GABA-evoked currents in HEK-293 cells expressing extra-synaptic (α5β3γ2L) or synaptic (α1β2γ2L) types of GABAA receptors were studied using the conventional whole-cell patch clamp technique. To mimic the physiological GABA exposure, the HEK-293 cells expressing α1β2γ2L GABAA receptors were exposed to short applications (40 ms) of 30 µM GABA, whereas HEK-293 cells expressing α5β3γ2L GABAA receptors were exposed to prolonged applications (6 s) of 0.3 µM GABA, either in the absence or presence of THDOC and/or GR3027.
# T1 sequence (P31644 32-462): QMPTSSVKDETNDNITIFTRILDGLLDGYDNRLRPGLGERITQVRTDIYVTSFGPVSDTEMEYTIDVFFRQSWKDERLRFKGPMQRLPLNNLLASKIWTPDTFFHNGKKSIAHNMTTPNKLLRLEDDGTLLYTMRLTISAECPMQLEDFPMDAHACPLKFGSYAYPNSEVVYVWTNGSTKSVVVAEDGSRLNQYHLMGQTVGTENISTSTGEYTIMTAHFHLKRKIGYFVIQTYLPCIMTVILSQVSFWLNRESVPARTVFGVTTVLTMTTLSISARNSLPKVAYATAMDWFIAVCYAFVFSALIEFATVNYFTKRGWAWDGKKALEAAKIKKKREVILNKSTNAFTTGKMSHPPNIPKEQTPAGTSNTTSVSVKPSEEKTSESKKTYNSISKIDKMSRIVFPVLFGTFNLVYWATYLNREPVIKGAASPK
# T1 sequence (P28472 26-473 isoform P28472-2 limits assumed): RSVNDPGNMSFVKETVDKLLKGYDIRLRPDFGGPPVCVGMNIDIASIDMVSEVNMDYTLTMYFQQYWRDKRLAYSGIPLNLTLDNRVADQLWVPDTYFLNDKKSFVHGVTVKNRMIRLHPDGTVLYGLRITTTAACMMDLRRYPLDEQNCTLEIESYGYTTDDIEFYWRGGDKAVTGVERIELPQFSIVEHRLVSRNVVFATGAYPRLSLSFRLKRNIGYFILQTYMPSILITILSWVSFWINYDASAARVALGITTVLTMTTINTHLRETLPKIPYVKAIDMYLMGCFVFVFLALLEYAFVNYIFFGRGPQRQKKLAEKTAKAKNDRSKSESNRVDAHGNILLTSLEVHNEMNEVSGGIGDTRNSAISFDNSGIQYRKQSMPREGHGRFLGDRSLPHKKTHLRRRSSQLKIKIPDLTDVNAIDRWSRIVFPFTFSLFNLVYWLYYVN
# T1 sequence (P18507 40-475 partner): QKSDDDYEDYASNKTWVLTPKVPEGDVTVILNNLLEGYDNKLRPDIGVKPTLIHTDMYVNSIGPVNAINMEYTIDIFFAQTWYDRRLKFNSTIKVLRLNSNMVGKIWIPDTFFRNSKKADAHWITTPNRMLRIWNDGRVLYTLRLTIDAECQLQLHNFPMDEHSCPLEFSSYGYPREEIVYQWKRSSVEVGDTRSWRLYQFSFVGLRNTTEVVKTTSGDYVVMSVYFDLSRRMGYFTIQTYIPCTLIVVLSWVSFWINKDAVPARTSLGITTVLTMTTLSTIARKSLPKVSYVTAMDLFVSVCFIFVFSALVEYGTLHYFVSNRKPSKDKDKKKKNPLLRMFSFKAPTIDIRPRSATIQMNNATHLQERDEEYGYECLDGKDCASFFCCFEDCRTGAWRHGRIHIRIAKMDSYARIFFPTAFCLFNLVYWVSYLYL
structure (smiles),measurement,setting,value
"CC(=O)[C@H]1CC[C@H]2[C@@H]3CC[C@H]4C[C@H](O)CC[C@]4(C)[C@H]3CC[C@]12C [AP, 3α-OH-5α-pregnan-20-one]",AUC of spontaneous miniature inhibitory postsynaptic currents vs vehicle,[1],significantly higher
same,Concentration in brain tissue after i.v. injections giving acute memory and learning disturbances,[2],1 to 2 µM
"C[C@]12CC[C@@H](O)C[C@@H]1CC[C@@H]1[C@@H]2CC[C@]2(C)[C@@H](C(=O)CO)CC[C@@H]12 [THDOC, 3α,21-dihydroxy-5α-pregnan-20-one, reference compound]",EC50,"[3]; EC50 of THDOC effect (outward shift in baseline holding current, direct activation), THDOC 30-300 nM, 0.3 µM GABA 6 s protocol, holding potential −17 mV",0.032 µM
same,"THDOC Emax, % change in peak amplitude at 0.3 µM GABA",[3]; THDOC 0.01-1 µM + 0.3 µM GABA + 1 µM GR3027,489%
same,"THDOC Emax, % change in peak amplitude at 0.3 µM GABA",[3]; THDOC 0.01-1 µM + 0.3 µM GABA + 3 µM GR3027,482%
same,"THDOC Emax, % change in peak amplitude at 0.3 µM GABA","[3]; THDOC 0.01-1 µM + 0.3 µM GABA, no GR3027",687%
same,"Emax of THDOC effect (outward shift in baseline holding current, direct activation)","[3]; THDOC 30-300 nM, 0.3 µM GABA 6 s protocol",145%
same,EC50,"[3]; THDOC EC50, enhancement of GABA-evoked peak amplitude, THDOC 0.01-1 µM + 0.3 µM GABA + 1 µM GR3027",0.22 µM
same,EC50,"[3]; THDOC EC50, enhancement of GABA-evoked peak amplitude, THDOC 0.01-1 µM + 0.3 µM GABA + 3 µM GR3027",0.35 µM
same,EC50,"[3]; THDOC EC50, enhancement of GABA-evoked peak amplitude, THDOC 0.01-1 µM + 0.3 µM GABA, no GR3027",0.19 µM
